Test results: doi:10.1101/2024.08.19.608619, “Discovery of potent SARS-CoV-2 nsp3 macrodomain inhibitors uncovers lack of translation to cellular antiviral response” (bioRxiv, 2024)
Read-outs that look alike come from different tables or passages of the source.

Assays:
iPSC pneumocytes = iPSC pneumocytes cytotoxicity; format: cell-based; settings: protocol iPSC pneumocytes cytotoxicity
From the text: Supplement media-1.zip/Cytotoxicity.csv, table | column: cc10; cc50; perc_min_measured; perc_max_measured

HeLa-ACE2 cells = settings: read-out: 50.0, 1440 min
SARS-CoV-2 = experiment: Antiviral effect in iPSC-derived pneumocyte system; format: cell-based; settings: iPSC pneumocytes SARS-CoV-2 antiviral effect
V1a (h) = target: T1, V1a (h) (Homo sapiens, UniProt P37288); experiment: In vitro CEREP profiling, V1a (h) (agonist radioligand); format: binding; settings: test compound concentration 10 uM
T1 construct: purchased Eurofins Cerep (SafetyScreen44), recognised from the panel format
T1 sequence (P37288 whole entry): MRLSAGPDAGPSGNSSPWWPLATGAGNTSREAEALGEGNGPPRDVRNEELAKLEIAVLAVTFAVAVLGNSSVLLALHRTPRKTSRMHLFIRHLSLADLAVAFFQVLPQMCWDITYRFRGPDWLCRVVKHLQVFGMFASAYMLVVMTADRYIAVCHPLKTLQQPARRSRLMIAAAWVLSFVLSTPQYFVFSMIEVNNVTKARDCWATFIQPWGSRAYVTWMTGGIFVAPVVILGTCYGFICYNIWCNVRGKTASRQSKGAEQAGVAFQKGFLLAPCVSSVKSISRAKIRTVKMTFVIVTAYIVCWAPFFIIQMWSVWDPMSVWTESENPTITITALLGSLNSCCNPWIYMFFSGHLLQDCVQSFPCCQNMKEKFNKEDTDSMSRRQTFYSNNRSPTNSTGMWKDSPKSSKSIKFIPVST
From the text: (§1) Supplement media-1.zip/Safety_Panel_Profile.csv, table | column: perc_inhibition

[1] = target: T2, N neuronal alpha4beta2 (h) (Homo sapiens, UniProt P17787+P43681); experiment: In vitro CEREP profiling, N neuronal alpha4beta2 (h) (agonist radioligand); format: binding; settings: test compound concentration 10 uM
T2 construct: purchased Eurofins Cerep (SafetyScreen44), recognised from the panel format
T2 sequence (P43681 29-627 limits assumed): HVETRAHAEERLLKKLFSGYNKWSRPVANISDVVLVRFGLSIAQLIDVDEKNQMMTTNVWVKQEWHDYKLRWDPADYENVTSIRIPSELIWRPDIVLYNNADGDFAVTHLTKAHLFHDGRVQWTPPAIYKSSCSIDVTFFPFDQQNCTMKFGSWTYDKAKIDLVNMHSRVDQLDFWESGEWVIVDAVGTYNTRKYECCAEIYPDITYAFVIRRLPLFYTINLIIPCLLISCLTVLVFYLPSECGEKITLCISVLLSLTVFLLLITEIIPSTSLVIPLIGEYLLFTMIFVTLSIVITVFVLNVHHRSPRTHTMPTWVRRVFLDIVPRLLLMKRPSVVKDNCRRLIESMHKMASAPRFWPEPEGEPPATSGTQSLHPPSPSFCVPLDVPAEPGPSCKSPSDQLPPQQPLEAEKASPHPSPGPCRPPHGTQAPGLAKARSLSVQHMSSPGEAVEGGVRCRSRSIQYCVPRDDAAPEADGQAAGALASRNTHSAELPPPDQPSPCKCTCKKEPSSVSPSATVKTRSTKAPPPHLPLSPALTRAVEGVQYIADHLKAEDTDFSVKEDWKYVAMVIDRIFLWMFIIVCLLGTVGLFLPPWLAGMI
T2 sequence (P17787 26-502): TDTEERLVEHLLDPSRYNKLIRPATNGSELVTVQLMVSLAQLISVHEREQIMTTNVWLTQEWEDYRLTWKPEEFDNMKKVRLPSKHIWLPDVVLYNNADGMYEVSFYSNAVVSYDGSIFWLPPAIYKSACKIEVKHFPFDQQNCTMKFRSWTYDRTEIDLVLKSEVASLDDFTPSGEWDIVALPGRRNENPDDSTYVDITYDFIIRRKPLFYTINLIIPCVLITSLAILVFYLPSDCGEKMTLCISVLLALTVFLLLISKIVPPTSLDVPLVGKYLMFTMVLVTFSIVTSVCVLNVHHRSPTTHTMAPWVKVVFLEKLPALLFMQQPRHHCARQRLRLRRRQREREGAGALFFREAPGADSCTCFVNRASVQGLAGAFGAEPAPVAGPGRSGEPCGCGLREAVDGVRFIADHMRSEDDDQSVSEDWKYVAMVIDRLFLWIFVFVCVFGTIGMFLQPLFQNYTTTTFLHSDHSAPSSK
From the text: as §1

5-HT1B (h) = target: T3, 5-HT1B (h) (Homo sapiens, UniProt P28222); experiment: In vitro CEREP profiling, 5-HT1B (h) (antagonist radioligand); format: binding; settings: test compound concentration 10 uM
T3 construct: purchased Eurofins Cerep (SafetyScreen44), recognised from the panel format
T3 sequence (P28222 whole entry): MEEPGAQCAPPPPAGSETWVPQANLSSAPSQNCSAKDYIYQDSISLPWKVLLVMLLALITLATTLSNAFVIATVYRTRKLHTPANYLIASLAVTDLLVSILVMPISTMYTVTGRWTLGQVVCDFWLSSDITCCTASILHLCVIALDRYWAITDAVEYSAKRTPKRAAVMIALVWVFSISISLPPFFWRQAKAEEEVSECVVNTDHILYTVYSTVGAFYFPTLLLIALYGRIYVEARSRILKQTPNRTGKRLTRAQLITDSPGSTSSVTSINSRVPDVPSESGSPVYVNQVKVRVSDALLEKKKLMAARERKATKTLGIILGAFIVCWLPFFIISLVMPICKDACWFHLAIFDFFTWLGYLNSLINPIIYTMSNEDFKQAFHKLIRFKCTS
From the text: as §1

H1 (h) = target: T4, H1 (h) (Homo sapiens, UniProt P35367); experiment: In vitro CEREP profiling, H1 (h) (antagonist radioligand); format: binding; settings: test compound concentration 10 uM
T4 construct: purchased Eurofins Cerep (SafetyScreen44), recognised from the panel format
T4 sequence (P35367 whole entry): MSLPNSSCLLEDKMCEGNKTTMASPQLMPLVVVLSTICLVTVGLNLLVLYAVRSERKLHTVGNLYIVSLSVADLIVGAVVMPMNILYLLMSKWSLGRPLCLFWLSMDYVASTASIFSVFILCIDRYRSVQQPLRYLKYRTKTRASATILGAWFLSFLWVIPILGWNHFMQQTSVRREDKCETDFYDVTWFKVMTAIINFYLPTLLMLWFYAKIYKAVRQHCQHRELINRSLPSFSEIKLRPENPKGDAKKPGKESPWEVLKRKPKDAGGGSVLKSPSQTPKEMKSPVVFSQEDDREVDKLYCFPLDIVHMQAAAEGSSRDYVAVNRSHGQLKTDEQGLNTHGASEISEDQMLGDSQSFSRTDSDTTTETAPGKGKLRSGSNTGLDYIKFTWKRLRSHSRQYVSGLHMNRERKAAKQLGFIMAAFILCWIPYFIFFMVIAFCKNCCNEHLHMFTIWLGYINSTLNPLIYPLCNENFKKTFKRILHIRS
From the text: as §1

[2] = In vitro dog liver microsomal stability; format: in vitro ADME
From the text: Supplement media-1.zip/Hepatic_Microsomal_Stability.csv, table | column: clint; t_half

beta1 (h) = target: T5, beta1 (h) (Homo sapiens, UniProt P08588); experiment: In vitro CEREP profiling, beta1 (h) (agonist radioligand); format: binding; settings: test compound 10 uM
T5 construct: purchased Eurofins Cerep (SafetyScreen44), recognised from the panel format
T5 sequence (P08588 whole entry): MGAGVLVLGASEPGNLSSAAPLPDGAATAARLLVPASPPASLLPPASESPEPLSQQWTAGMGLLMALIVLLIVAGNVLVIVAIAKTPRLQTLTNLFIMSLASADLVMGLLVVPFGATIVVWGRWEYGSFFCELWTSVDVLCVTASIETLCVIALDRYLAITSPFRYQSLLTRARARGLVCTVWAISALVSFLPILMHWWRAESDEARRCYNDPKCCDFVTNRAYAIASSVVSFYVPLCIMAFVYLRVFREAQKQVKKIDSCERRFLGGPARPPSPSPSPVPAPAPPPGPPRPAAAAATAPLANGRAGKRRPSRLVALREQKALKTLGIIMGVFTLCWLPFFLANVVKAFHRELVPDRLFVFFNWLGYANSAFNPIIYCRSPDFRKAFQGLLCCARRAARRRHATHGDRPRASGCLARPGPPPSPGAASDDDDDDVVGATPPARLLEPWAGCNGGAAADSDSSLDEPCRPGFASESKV
From the text: as §1

SMILES | perc_max_measured (iPSC pneumocytes; highest measured response of the dose series) | perc_min_measured (iPSC pneumocytes; lowest measured response of the dose series) | CC50 (HeLa-ACE2 cells; ASAP-0008327-001=ASAP-0008418-001) | EC50 (SARS-CoV-2) | EC90 (SARS-CoV-2) | perc_max_measured (SARS-CoV-2; maximum measured response of dose series) | perc_min_measured (SARS-CoV-2; minimum measured response of dose series) | perc_inhibition (% inhibition of the binding of a ligand specific for each target) (V1a (h)) | CC50 (HeLa-ACE2 cells; ASAP-0008327-001=ASAP-0011221-001, 50.0, 1440 min) | perc_inhibition (% inhibition of the binding of a ligand specific for each target) [1] | perc_inhibition (% inhibition of the binding of a ligand specific for each target) (5-HT1B (h)) | perc_inhibition (% inhibition of the binding of a ligand specific for each target) (H1 (h)) | clint [2] | t_half [2] | perc_inhibition (% inhibition of the binding of a ligand specific for each target) (beta1 (h))
CC(C)[C@@H](Nc1ncnc2[nH]c(-c3cnn(C)c3C#N)cc12)c1ccc2c(n1)OCCO2 [ASAP-0008418] | 95.683% | 63.391% | > 50 µM | 12.7 µM | 15.6 µM | 116.418% | 5.314% |  |  |  |  |  |  |  | 
Cn1ncc(-c2cc3c(N[C@@H](c4ccc5c(n4)OCCO5)C(C)(C)C)ncnc3[nH]2)c1C#N [ASAP-0011221] |  |  |  |  |  |  |  | 57% | > 10 µM | -5% | 18% | 7% | 17.8 µL/min/mg | 38.8 min | 11%
